Target: T1, hKCa3.1 (Homo sapiens, UniProt O15554)
T1 construct: EGFP (vector pEGFP-C1); expressed in transfected cells; host or cells: CHO cells, transient transfection
Assay: Whole-cell patch-clamp, block of KCa3.1 current
Format: cell-based
Text: We, therefore, aimed at testing the pharmacological activity of sCm39 on a battery of various potassium and sodium ion channels. Among the tested channels were six members of human voltage-gated K^+ (hKV) channels from Shaker family, hKV1.1-hKV1.6 (Figure 3A–F) and three members of Ca^2+-activated potassium channel; hKCa2.2 (SK2, Figure 3I), the small-conductance Ca^2+-activated channel; hKCa3.1 (IKCa1, SK4. Figure 3J), the intermediate-conductance Ca^2+-activated channel expressed in T lymphocytes; and mKCa1.1 (BK, Slo1, MaxiK, Figure 3H), the large-conductance voltage- and Ca^2+-activated channel of mice. In addition, we also screened the effect of Cm39 on hKV11.1 (hERG1, Figure 3G), a voltage-gated cardiac K^+ channel, and two human voltage-gated sodium (hNaV) channels, hNaV1.4 (Figure 3K) and hNaV1.5 (Figure 3L), expressed in skeletal and cardiac muscles, respectively. These ion channels were heterologously expressed in the CHO or HEK cell lines except for KV1.3. Human peripheral T lymphocytes. They were stimulated with Phytohemagglutinin A (PHA) to increase the KV1.3 channel expression, and Ca^2+-free intracellular solution was used to avoid KCa3.1 channel activation. Appropriate depolarization protocols were used to record ionic currents in voltage-clamped cells (see Figure 3 insets and Material and Methods for details). Freshly dissolved sCm39 in extracellular solution was applied at 1 µM concentration on the cell using a custom-built micro-perfusion system at ~200 µL/min flow rate.
The whole-cell K^+ currents of CHO cells transiently expressing KCa2.2 or KCa3.1 channels were recorded sequentially by applying the 150 ms long voltage ramp to +50 mV from Vh of −120 mV every 10 s in the presence of control solution or upon perfusing the cell with different concentrations of sCm39. Normalized peak currents were calculated and plotted as function of time as shown in Figure 5A for KCa2.2 and in Figure 5C for KCa3.1 in the presence of the toxin at various concentrations and upon wash-out. […] RCF values were determined at equilibrium block in the presence of various concentrations of sCm39 and fitted with the Hill equation (see Materials and Methods for details).
Chinese hamster ovary (CHO) cells (gift from Yosef Yarden, Weizmann Institute of Science, Rehovot, Israel) were maintained by culturing in Dulbecco’s modified Eagle medium (DMEM, Gibco) supplemented with 2 mM L-glutamine, 10% FBS, 100 µg/mL streptomycin and 100 U/mL penicillin-g (Sigma-Aldrich) at a density of 0. 5−1×10^6 cells per mL in a humidified incubator at 37 °C and 5% CO2. Cells were passaged 3 times in a week following a 2–5 min incubation in 0.05% trypsin-EDTA solution at 37 °C. Cultures were used up to passage number 20. PCR-based tests were routinely used to detect mycoplasma infection, only mycoplasma-free cultures were used for experiments.
Those plasmids which lack a fluorescent tag were co-transfected with a plasmid encoding GFP. Transfections were performed at a GFP:channel DNA molar ratio of 1:10 using the Lipofectamine 2000 kit (Invitrogen) according to the manufacturer’s protocol. […] Generally, currents were recorded 24 to 48 h post transfection.
For the measurement of KV1.x, mKCa1.1 and NaV1.x currents the extracellular solution was composed of (in mM) 145 NaCl, 5 KCl, 2.5 CaCl2, 1 MgCl2, 10 HEPES and 5.5 glucose, pH 7.35.

T1 sequence (O15554 whole entry): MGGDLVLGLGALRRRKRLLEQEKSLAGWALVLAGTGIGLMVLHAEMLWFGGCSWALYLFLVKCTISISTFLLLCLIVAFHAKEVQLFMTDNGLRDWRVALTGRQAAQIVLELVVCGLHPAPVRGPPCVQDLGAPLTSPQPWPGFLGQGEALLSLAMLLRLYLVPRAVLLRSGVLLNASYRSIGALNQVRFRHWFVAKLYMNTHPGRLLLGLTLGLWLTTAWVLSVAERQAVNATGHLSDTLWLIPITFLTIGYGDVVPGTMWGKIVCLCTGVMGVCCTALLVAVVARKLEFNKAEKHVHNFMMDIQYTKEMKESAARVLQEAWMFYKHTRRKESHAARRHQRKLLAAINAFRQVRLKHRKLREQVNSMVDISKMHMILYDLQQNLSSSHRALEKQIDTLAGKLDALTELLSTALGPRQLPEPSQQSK

CC[C@H](C)[C@@H]1NC(=O)[C@H](C)NC(=O)[C@H](C)NC(=O)[C@H](CCCCN)NC(=O)[C@@H]2CSSC[C@@H](C(=O)N[C@@H](Cc3ccc(O)cc3)C(=O)N[C@@H](Cc3ccc(O)cc3)C(=O)O)NC(=O)[C@H](CCCCN)NC(=O)[C@@H]3CSSC[C@H](NC(=O)[C@H](CCC(=O)O)NC(=O)[C@H](CO)NC(=O)[C@H](CO)NC(=O)[C@H](CO)NC(=O)[C@H](CCCCN)NC(=O)[C@@H](NC(=O)[C@H](CCCCN)NC(=O)[C@H](Cc4c[nH]cn4)NC(=O)[C@H](CC(N)=O)NC(=O)[C@@H](NC(=O)[C@H](Cc4ccccc4)NC(=O)[C@@H](N)[C@@H](C)O)[C@@H](C)CC)CSSC[C@H](NC(=O)[C@H](CCCCN)NC(=O)CNC(=O)[C@H](CO)NC(=O)[C@H](C)NC(=O)[C@H](CCCNC(=N)N)NC(=O)CNC1=O)C(=O)N[C@@H]([C@@H](C)CC)C(=O)N[C@@H](CC(N)=O)C(=O)N[C@@H](CO)C(=O)N[C@@H]([C@@H](C)O)C(=O)N3)C(=O)N[C@@H](CC(C)C)C(=O)N1CCC[C@H]1C(=O)N[C@@H](C)C(=O)N2 [Cm39]
reduction of current at equilibrium block (1 µM, CHO cells, current at +48 mV, n = 3−5 (Figure 3M)): 86%
toxin association and dissociation kinetics (CHO cells): fast
toxin association and dissociation kinetics (CHO cells, listed as sCm39): very fast
Hill coefficient (H) (concentration-response of KCa3.1 block, CHO cells): 0.68
development and almost full recovery from equilibrium block (pulses separated by 10 s): 1–3 depolarization pulses
reversibility of KCa3.1 block (wash-out with toxin-free solution): fully reversible
